Experimental data as given in patent US20250270217A1, “IMIDAZ0[1,2-A]PYRIMIDINE-5(1 H)-ONES HAVING A COVALENT WARHEAD AT THE 3-POSITION AS WRN INHIBITORS” (Incyte Corporation, priority 2023, published 2025).
Where a name gives a salt, the structure may show the parent alone.

Columns and labels:
WRN [1] = molecular target: T1, WRN (Homo sapiens, UniProt Q14191); experiment: WRN ATPase activity assay (ADP-Glo); assay type: biochemical; conditions: 1-hr pre-incubation with enzyme; 100 μM ATP, 25 nM forked dsDNA, 1 nM WRN; geometric mean of at least 2 replicates
T1 construct: A His-tagged construct of WRN (AA S2-S1235) was produced and used for the ATPase assay; His; made in house; host or cells: Sf9 insect cells (baculovirus)
Description: Compounds of the Examples were tested for WRN ATPase activity. WRN ATPase activity catalyzes ATP hydrolysis to produce ADP and phosphate. DNA encoding the target protein, 6×HIS-TEV-WRN-517-945, was produced, cloned and transfected as detailed in Example D. The amount of ADP produced was measured using ADP-Glo™ Kinase Assay kit from Promega Corporation in a Greiner white regular volume 384 wells assay plate (Greiner #781075). Data was normalized to a standard curve generated using various ADP concentrations and the corresponding luminescent signal intensities at each concentration. The assay conditions were optimized for enzyme concentration (WRN), substrate concentrations (ATP & dsDNA), and the linearity of the ATPase reaction, in the following assay buffer: 50 mM Tris-HCl, pH-7.5, 2 mM MgCl2, 50 mM NaCl, 1 mM EGTA, 0.01% P-20, 0.05% BSA, and 2 mM DTT prepared with nuclease free water.
A serial dilution (1:3 scheme) of the compounds were prepared in neat DMSO, with 100 nL of the compounds dispensed in the 384 wells assay plate. An 1-hr pre-incubation of the compounds with enzyme was included. A His-tagged construct of WRN (AA S2-S1235) was produced and used for the ATPase assay. Maximum inhibition control wells were set up with the addition of only assay buffer, and no inhibition control wells were set up with neat DMSO without test compounds. The reaction was initiated by addition of 5 μL substrate mix (200 μM ultrapure ATP, and 50 nM dsDNA prepared in assay buffer) and incubated at 25° C. for 35 min. A forked dsDNA oligomer substrate was prepared by annealing equal amounts of oligo GPat-1 ([BHQ2][…]) and oligo GPat-2 ([…][TAM]) and was used as dsDNA substrate for WRN ATPase assay. A typical ATPase reaction consists of 25 nM forked dsDNA, 100 μM ATP, and 1 nM WRN prepared in assay buffer. The WRN ATPase reaction was stopped by the addition of 5 μL of ADP-Glo Reagent from ADP-Glo™ Kinase Assay kit and incubated for 40 min to deplete the unreacted ATP. Afterwards, 5 μL of Kinase Detection Reagent from the ADP-Glo™ Kinase Assay kit was added and incubated for 1 hr for the development of luminescence signal.
Luminesce signals were measured on BMG PHERAstar FSX using luminescence protocol. Data analysis was carried out using Genedata software following % of control normalization. Fitting parameters include dose response IC50, Hill slope (n), maximum inhibition (S∞), and minimum inhibition (S0). The reported IC50 values for compounds in this invention are the geometric means of at least 2 independent replicates.

WRN [2] = molecular target: T1, WRN; experiment: WRN Helicase activity assay (fluorescence DNA unwinding); assay type: biochemical; conditions: 1-hr pre-incubation with enzyme; 100 μM ATP, 25 nM forked dsDNA, 1 nM WRN; geometric mean of at least 2 replicates
Description: Compounds of the examples were tested for WRN helicase activity. DNA encoding the target protein, 6×HIS-TEV-WRN-517-945, was produced, cloned and transfected as detailed in Example D. To determine the inhibitory properties of the compounds, a 384 wells plate-based Helicase assay was set up to measure the extent of DNA unwinding (Helicase) activity of WRN. The WRN Helicase assay was designed to measure increase in fluorescence signal using a fluorescence based, donor-quencher paired forked dsDNA oligomer substrate (custom synthesis from Sigma-Aldrich) prepared by annealing equal amounts of oligo GPat-1 ([BHQ2][…]) and oligo GPat-2 ([…][TAM]). Continuous measurement of fluorescent signal was used to optimize the buffer conditions, concentration of enzyme (WRN), concentration of substrates (ATP & dsDNA), and the linearity of the Helicase reaction. All solutions were prepared in the following assay buffer: 50 mM Tris-HCl, pH-7.5, 2 mM MgCl2, 50 mM NaCl, 1 mM EGTA, 0.01% P-20, 0.05% BSA, and 2 mM DTT prepared with nuclease free water.
A serial dilution (1:3 scheme) of the compounds was prepared in neat DMSO and 100 nL of the compounds was dispensed in the Greiner black low volume (Greiner #784076) 384 wells assay plate. An 1-hr pre-incubation of the compounds with enzyme was included. A His-tagged construct of WRN (AA S2-S1235) was produced and used for the ATPase assay. Maximum inhibition control wells were set up with the addition of only assay buffer, and no inhibition control wells were set up with neat DMSO without test compounds. The reaction was initiated by addition of 5 μL substrate mix (200 μM ultrapure ATP, and 50 nM dsDNA prepared in assay buffer) and incubated at 25° C. for 35 min. A typical Helicase reaction consists of 25 nM forked dsDNA, 100 μM ATP, and 1 nM WRN prepared in assay buffer. The WRN Helicase reaction was quenched by the addition of 5 μL ‘STOP’ solution containing 100 mM EDTA (final EDTA concentration 33.33 mM) prepared in assay buffer. The plates were read on BMG PHERAstar FSX using 540/590 module to measure an increase of fluorescence. Data analysis was carried out using the Genedata software following % of control normalization. Fitting parameters include dose response IC50, Hill slope (n), maximum inhibition (S∞), and minimum inhibition (S0). The reported IC50 values for compounds in this invention are the geometric means of at least 2 independent replicates.

T1 sequence (Q14191 2-1235): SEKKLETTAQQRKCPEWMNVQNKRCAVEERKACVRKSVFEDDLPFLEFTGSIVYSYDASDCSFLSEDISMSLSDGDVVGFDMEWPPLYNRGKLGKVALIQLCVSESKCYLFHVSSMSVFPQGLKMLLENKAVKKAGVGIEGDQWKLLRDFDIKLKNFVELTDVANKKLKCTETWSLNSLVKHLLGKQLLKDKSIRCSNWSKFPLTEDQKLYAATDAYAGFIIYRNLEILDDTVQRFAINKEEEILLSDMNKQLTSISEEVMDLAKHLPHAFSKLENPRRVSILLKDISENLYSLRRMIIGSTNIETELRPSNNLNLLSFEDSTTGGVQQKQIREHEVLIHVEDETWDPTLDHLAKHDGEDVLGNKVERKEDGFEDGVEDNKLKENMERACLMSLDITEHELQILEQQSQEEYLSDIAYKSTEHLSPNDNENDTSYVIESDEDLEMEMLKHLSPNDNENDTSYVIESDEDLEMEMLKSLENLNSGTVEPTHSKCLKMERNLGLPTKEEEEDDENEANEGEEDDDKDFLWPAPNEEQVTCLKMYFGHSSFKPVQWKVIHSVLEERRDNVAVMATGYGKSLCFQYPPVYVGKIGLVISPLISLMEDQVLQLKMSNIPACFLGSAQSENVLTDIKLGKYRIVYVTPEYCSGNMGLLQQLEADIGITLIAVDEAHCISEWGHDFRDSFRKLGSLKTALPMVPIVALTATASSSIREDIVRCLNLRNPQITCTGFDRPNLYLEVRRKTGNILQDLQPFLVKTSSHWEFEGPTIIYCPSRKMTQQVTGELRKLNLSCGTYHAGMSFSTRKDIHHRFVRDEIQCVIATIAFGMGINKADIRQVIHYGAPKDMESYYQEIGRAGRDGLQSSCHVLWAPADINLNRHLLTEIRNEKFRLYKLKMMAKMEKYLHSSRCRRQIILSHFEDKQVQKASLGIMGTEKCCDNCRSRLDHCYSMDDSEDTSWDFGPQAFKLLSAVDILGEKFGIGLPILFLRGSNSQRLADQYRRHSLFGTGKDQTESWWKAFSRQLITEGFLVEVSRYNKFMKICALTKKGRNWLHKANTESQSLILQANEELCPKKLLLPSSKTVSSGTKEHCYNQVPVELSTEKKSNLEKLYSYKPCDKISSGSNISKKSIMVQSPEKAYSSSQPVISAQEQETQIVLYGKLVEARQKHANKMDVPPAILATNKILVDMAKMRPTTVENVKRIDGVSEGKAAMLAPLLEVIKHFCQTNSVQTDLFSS

SMILES	IC50 (WRN [1])	IC50 (WRN [2])
C=CC(=O)Nc1cc(C(=O)NC2CC2)ccc1-c1c(CC)nc2n(CC(=O)Nc3ccc(F)cc3Cl)c(C)c(C)n2c1=O [Example 25, 3-Acrylamido-4-(1-(2-((2-chloro-4-fluorophenyl)amino)-2-oxoethyl)-7-ethyl-2,3-dimethyl-5-oxo-1,5-dihydroimidazo[1,2-a]pyrimidin-6-yl)-N-cyclopropylbenzamide]	< 100 nM	< 100 nM
C=CC(=O)Nc1cc(C(=O)NCC(F)F)ccc1-c1c(CC)nc2n(CC(=O)Nc3ccc(C(F)(F)F)cc3)c(C)c(C)n2c1=O [Example 30, 3-Acrylamido-N-(2,2-difluoroethyl)-4-(7-ethyl-2,3-dimethyl-5-oxo-1-(2-oxo-2-((4-(trifluoromethyl)phenyl)amino)ethyl)-1,5-dihydroimidazo[1,2-a]pyrimidin-6-yl)benzamide]	< 100 nM	< 100 nM
C=CC(=O)Nc1cc(C(=O)NC2CC2)ccc1-c1c(CC)nc2n(CC(=O)Nc3ccc(C(F)(F)F)cc3)c(C)c(C)n2c1=O [Example 23, 3-Acrylamido-N-cyclopropyl-4-(7-ethyl-2,3-dimethyl-5-oxo-1-(2-oxo-2-((4-(trifluoromethyl)phenyl)amino)ethyl)-1,5-dihydroimidazo[1,2-a]pyrimidin-6-yl)benzamide]	< 100 nM	< 100 nM
C=CC(=O)Nc1ccccc1-c1c(C)n(CC(=O)Nc2ccc(C(F)(F)F)cc2)c2nc(CC)c(-c3ccc(C(=O)NC)nc3)c(=O)n12 [Example 41, 5-(3-(2-Acrylamidophenyl)-7-ethyl-2-methyl-5-oxo-1-(2-oxo-2-((4-(trifluoromethyl)phenyl)amino)ethyl)-1,5-dihydroimidazo[1,2-a]pyrimidin-6-yl)-N-methylpicolinamide, trifluoroacetate salt]	< 100 nM	< 100 nM
C=CC(=O)Nc1ccccc1-c1c(C)n(CC(=O)Nc2ccc(C(F)(F)F)cc2)c2nc(CC)c(-c3ccc(C(=O)NCC)cc3)c(=O)n12 [Example 40, 4-(3-(2-Acrylamidophenyl)-7-ethyl-2-methyl-5-oxo-1-(2-oxo-2-((4-(trifluoromethyl)phenyl)amino)ethyl)-1,5-dihydroimidazo[1,2-a]pyrimidin-6-yl)-N-ethylbenzamide, trifluoroacetate salt]	< 100 nM	< 100 nM
C=CC(=O)Nc1cc(C(=O)NC2(CO)CC2)ccc1-c1c(CC)nc2n(CC(=O)Nc3ccc(C(F)(F)F)cc3)c(C)c(C)n2c1=O [Example 34, 3-Acrylamido-4-(7-ethyl-2,3-dimethyl-5-oxo-1-(2-oxo-2-((4-(trifluoromethyl)phenyl)amino)ethyl)-1,5-dihydroimidazo[1,2-a]pyrimidin-6-yl)-N-(1-(hydroxymethyl)cyclopropyl)benzamide]	< 100 nM	< 100 nM
C=CC(=O)Nc1cc(C(=O)NCC)ccc1-c1c(CC)nc2n(CC(=O)Nc3ccc(C(F)(F)F)cc3)c(C)c(C)n2c1=O [Example 27, 3-Acrylamido-N-ethyl-4-(7-ethyl-2,3-dimethyl-5-oxo-1-(2-oxo-2-((4-(trifluoromethyl)phenyl)amino)ethyl)-1,5-dihydroimidazo[1,2-a]pyrimidin-6-yl)benzamide]	< 100 nM	< 100 nM

Results, then the compound that gave them:

IC50 (WRN [1])	IC50 (WRN [2])	SMILES
< 100 nM	< 100 nM	C=CC(=O)Nc1ncccc1-c1c(CC)nc2n(CC(=O)Nc3ccc(C(F)(F)F)cc3)c(C)cn2c1=O [Example 4, N-(3-(7-Ethyl-2-methyl-5-oxo-1-(2-oxo-2-((4-(trifluoromethyl)phenyl)amino)ethyl)-1,5-dihydroimidazo[1,2-a]pyrimidin-6-yl)pyridin-2-yl)acrylamide]
< 100 nM	< 100 nM	C=CC(=O)Nc1cc(C(=O)NC2CC2)ccc1-c1c(CC)nc2n(CC(=O)Nc3ccc(F)cc3Cl)c(C)cn2c1=O [Example 9, 3-Acrylamido-4-(1-(2-((2-chloro-4-fluorophenyl)amino)-2-oxoethyl)-7-ethyl-2-methyl-5-oxo-1,5-dihydroimidazo[1,2-a]pyrimidin-6-yl)-N-cyclopropylbenzamide]
1000 to 5000 nM	500 to 1000 nM	C=CC(=O)Nc1ccccc1-c1c(CC)nc2n(CC(=O)Nc3ccc(C(F)(F)F)cc3)c(-c3ccccc3)cn2c1=O [Example 22, N-(2-(7-Ethyl-5-oxo-1-(2-oxo-2-((4-(trifluoromethyl)phenyl)amino)ethyl)-2-phenyl-1,5-dihydroimidazo[1,2-a]pyrimidin-6-yl)phenyl)acrylamide]
< 100 nM	< 100 nM	C=CC(=O)Nc1c(Cl)cccc1-c1c(CC)nc2n(CC(=O)Nc3ccc(Cl)cc3)c(C)cn2c1=O [Example 43, N-(2-chloro-6-(1-(2-((4-chlorophenyl)amino)-2-oxoethyl)-7-ethyl-2-methyl-5-oxo-1,5-dihydroimidazo[1,2-a]pyrimidin-6-yl)phenyl)acrylamide]
< 100 nM	< 100 nM	C=CC(=O)Nc1ccccc1-c1c(CC)nc2n(CC(=O)Nc3ccc(F)cc3Cl)c(C)c(C)n2c1=O [Example 20, N-(2-(1-(2-((2-Chloro-4-fluorophenyl)amino)-2-oxoethyl)-7-ethyl-2,3-dimethyl-5-oxo-1,5-dihydroimidazo[1,2-a]pyrimidin-6-yl)phenyl)acrylamide]
< 100 nM	< 100 nM	C=CC(=O)Nc1ccccc1-c1c(C)n(CC(=O)Nc2ccc(F)cc2)c2nc(CC)c(-c3ccccc3)c(=O)n12 [Example 37, N-(2-(7-Ethyl-1-(2-((4-fluorophenyl)amino)-2-oxoethyl)-2-methyl-5-oxo-6-phenyl-1,5-dihydroimidazo[1,2-a]pyrimidin-3-yl)phenyl)acrylamide]
< 100 nM	< 100 nM	C=CC(=O)Nc1ccccc1-c1c(CC)nc2n(CC(=O)Nc3ccc(C(F)(F)F)cc3)c(C)c(-c3ccccc3)n2c1=O [Example 15, N-(2-(7-Ethyl-2-methyl-5-oxo-1-(2-oxo-2-((4-(trifluoromethyl)phenyl)amino)ethyl)-3-phenyl-1,5-dihydroimidazo[1,2-a]pyrimidin-6-yl)phenyl)acrylamide]
< 100 nM	< 100 nM	C=CC(=O)Nc1cc(C(=O)NC2CC2)ccc1-c1c(CC)nc2n(CC(=O)Nc3ccc(C(F)(F)F)cc3)c(C)cn2c1=O [Example 8, 3-Acrylamido-N-cyclopropyl-4-(7-ethyl-2-methyl-5-oxo-1-(2-oxo-2-((4-(trifluoromethyl)phenyl)amino)ethyl)-1,5-dihydroimidazo[1,2-a]pyrimidin-6-yl)benzamide]
